Reference: the supplement of paper PMC10883282

Legend:
Assay in all cases: relative viability vs DMSO control (72 h) (fraction); higher = more viable cells
A204 = tested on: A204
Summary of the method: (§1)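 Serially diluted compound, 2.5 µl from source plates spanning 10 mM to 0.0002 mM, was added 24 h after sarcoma cell lines were seeded in 384-well plates at densities targeting 80–90% confluence. Plates then sat 72 h at 37 °C, 5% CO2, with 0.1% DMSO vehicle and a 5 µM positive control. Relative viability came from ATPLite as percent growth, averaged over up to triplicate wells, and was rescaled with 1 as full and 0 as none.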

SW982 = tested on: SW982
Summary of the method: as §1

SW1353 = tested on: SW1353
Summary of the method: as §1

G401 = tested on: G401
Summary of the method: as §1

SW872 = tested on: SW872
Summary of the method: as §1

SK-LMS-1 = tested on: SK-LMS-1
Summary of the method: as §1

SK-ES-1 = tested on: SK-ES-1
Summary of the method: as §1

MES-SA = tested on: MES-SA
Summary of the method: as §1

SYO-1 = tested on: SYO-1
Summary of the method: as §1

KHOS-240S = tested on: KHOS-240S
Summary of the method: as §1

SW684 = tested on: SW684
Summary of the method: as §1

HS729 = tested on: HS729
Summary of the method: as §1

CN1CC[C@@H](NC(=O)Nc2ccc(C#N)cc2)C[C@@H]1c1nc2ccccc2[nH]1 [Glasdegib]
Settings	relative viability
A204, 0.00017 µM	1.07
A204, 0.00051 µM	1.074
A204, 0.00152 µM	1.09
A204, 0.00457 µM	1.06
A204, 0.01372 µM	1.09
A204, 0.04115 µM	1.06
A204, 0.1235 µM	1.064
A204, 0.3704 µM	1.05
A204, 1.111 µM	1.04
A204, 3.333 µM	1.02
A204, 10 µM	0.975
G401, 0.00017 µM	1.04
G401, 0.00051 µM	1.03
G401, 0.00152 µM	1.02
G401, 0.00457 µM	1.02
G401, 0.01372 µM	1.03
G401, 0.04115 µM	1.03
G401, 0.1235 µM	1.02
G401, 0.3704 µM	0.986
G401, 1.111 µM	0.997
G401, 3.333 µM	0.949
G401, 10 µM	0.934
HS729, 0.00017 µM	1.07
HS729, 0.00051 µM	1.02
HS729, 0.00152 µM	1.05
HS729, 0.00457 µM	0.993
HS729, 0.01372 µM	1.02
HS729, 0.04115 µM	1.05
HS729, 0.1235 µM	1.03
HS729, 0.3704 µM	0.984
HS729, 1.111 µM	1.03
HS729, 3.333 µM	0.993
HS729, 10 µM	1.03
KHOS-240S, 0.00017 µM	1.04
KHOS-240S, 0.00051 µM	1.061
KHOS-240S, 0.00152 µM	1.08
KHOS-240S, 0.00457 µM	1.08
KHOS-240S, 0.01372 µM	1.06
KHOS-240S, 0.04115 µM	1.06
KHOS-240S, 0.1235 µM	1.05
KHOS-240S, 0.3704 µM	1.065
KHOS-240S, 1.111 µM	1.05
KHOS-240S, 3.333 µM	1.05
KHOS-240S, 10 µM	1.03
MES-SA, 0.00017 µM	0.945
MES-SA, 0.00051 µM	0.956
MES-SA, 0.00152 µM	0.976
MES-SA, 0.00457 µM	0.956
MES-SA, 0.01372 µM	0.952
MES-SA, 0.04115 µM	0.915
MES-SA, 0.1235 µM	0.938
MES-SA, 0.3704 µM	0.919
MES-SA, 1.111 µM	0.926
MES-SA, 3.333 µM	0.935
MES-SA, 10 µM	0.85
SK-ES-1, 0.00017 µM	1
SK-ES-1, 0.00051 µM	1.03
SK-ES-1, 0.00152 µM	1
SK-ES-1, 0.00457 µM	1.02
SK-ES-1, 0.01372 µM	1.01
SK-ES-1, 0.04115 µM	0.965
SK-ES-1, 0.1235 µM	0.944
SK-ES-1, 0.3704 µM	0.975
SK-ES-1, 1.111 µM	0.944
SK-ES-1, 3.333 µM	0.77
SK-ES-1, 10 µM	0.696
SK-LMS-1, 0.00017 µM	1.08
SK-LMS-1, 0.00051 µM	1.09
SK-LMS-1, 0.00152 µM	1.111
SK-LMS-1, 0.00457 µM	1.07
SK-LMS-1, 0.01372 µM	1.14
SK-LMS-1, 0.04115 µM	1.11
SK-LMS-1, 0.1235 µM	1.09
SK-LMS-1, 0.3704 µM	1.06
SK-LMS-1, 1.111 µM	1.07
SK-LMS-1, 3.333 µM	1.02
SK-LMS-1, 10 µM	1.03
SW684, 0.00017 µM	1.165
SW684, 0.00051 µM	1.14
SW684, 0.00152 µM	1.19
SW684, 0.00457 µM	1.15
SW684, 0.01372 µM	1.16
SW684, 0.04115 µM	1.177
SW684, 0.1235 µM	1.12
SW684, 0.3704 µM	1.2
SW684, 1.111 µM	1.12
SW684, 3.333 µM	1.12
SW684, 10 µM	1.12
SW872, 0.00017 µM	1.08
SW872, 0.00051 µM	1.07
SW872, 0.00152 µM	1.08
SW872, 0.00457 µM	1.06
SW872, 0.01372 µM	1.06
SW872, 0.04115 µM	1.05
SW872, 0.1235 µM	1.06
SW872, 0.3704 µM	1.066
SW872, 1.111 µM	1.05
SW872, 3.333 µM	1.06
SW872, 10 µM	1.06
SW982, 0.00017 µM	0.988
SW982, 0.00051 µM	0.993
SW982, 0.00152 µM	1
SW982, 0.00457 µM	1.03
SW982, 0.01372 µM	1
SW982, 0.04115 µM	0.971
SW982, 0.1235 µM	1.004
SW982, 0.3704 µM	0.985
SW982, 1.111 µM	1.02
SW982, 3.333 µM	1.02
SW982, 10 µM	0.992
SW1353, 0.00017 µM	1.1
SW1353, 0.00051 µM	1.1
SW1353, 0.00152 µM	1.08
SW1353, 0.00457 µM	1.1
SW1353, 0.01372 µM	1.09
SW1353, 0.04115 µM	1.07
SW1353, 0.1235 µM	1.07
SW1353, 0.3704 µM	1.07
SW1353, 1.111 µM	1.1
SW1353, 3.333 µM	1.09
SW1353, 10 µM	1.04
SYO-1, 0.00017 µM	1.032
SYO-1, 0.00051 µM	1.01
SYO-1, 0.00152 µM	1.01
SYO-1, 0.00457 µM	0.99
SYO-1, 0.01372 µM	0.973
SYO-1, 0.04115 µM	0.976
SYO-1, 0.1235 µM	0.991
SYO-1, 0.3704 µM	1
SYO-1, 1.111 µM	0.999
SYO-1, 3.333 µM	0.975
SYO-1, 10 µM	0.981
